Experimental data from patent US20260223853A1, “PESTICIDALLY ACTIVE HETEROCYCLIC DERIVATIVES WITH SULFUR CONTAINING SUBSTITUENTS” (SYNGENTA CROP PROTECTION AG, priority 2023, published 2026).

Tests used:
Assay type in all cases: in vivo
[1] = tested on: Chilo suppressalis (Striped Rice Stemborer); experiment: Example B1: Activity against Chilo suppressalis (striped rice stemborer), artificial diet, L2 larvae; settings: 144 h, application rate of 200 ppm, 6 days after infestation, in comparison to untreated samples, read-out: control (at least one of mortality, anti-feedant effect, growth inhibition)
Procedure: Example B1: Activity Against Chilo suppressalis (Striped Rice Stemborer)
24-well microtiter plates with artificial diet were treated with aqueous test solutions prepared from 10′000 ppm DMSO stock solutions by pipetting. After drying, the plates were infested with L2 larvae (6-8 per well). The samples were assessed for mortality, anti-feeding effect, and growth inhibition in comparison to untreated samples 6 days after infestation. Control of Chilo suppressalis by a test sample is given when at least one of the categories mortality, anti-feedant effect, and growth inhibition is higher than the untreated sample.

[2] = tested on: Diabrotica balteata (Corn Root Worm); experiment: Example B2: Activity against Diabrotica balteata (corn root worm), maize sprouts, L2 larvae; settings: 96 h, application rate of 200 ppm, 4 days after infestation, in comparison to untreated samples, read-out: effect in at least one of the two categories (mortality or growth inhibition)
Procedure: Example B2: Activity Against Diabrotica balteata (Corn Root Worm)
Maize sprouts placed onto an agar layer in 24-well microtiter plates were treated with aqueous test solutions prepared from 10′000 ppm DMSO stock solutions by spraying. After drying, the plates were infested with L2 larvae (6 to 10 per well). The samples were assessed for mortality and growth inhibition in comparison to untreated samples 4 days after infestation.

[3] = tested on: Euschistus heros (Neotropical Brown Stink Bug); experiment: Example B3: Activity against Euschistus heros (neotropical brown stink bug), soybean leaves, N2 nymphs; settings: 120 h, application rate of 200 ppm, 5 days after infestation, in comparison to untreated samples, read-out: effect in at least one of the two categories (mortality or growth inhibition)
Procedure: Example B3: Activity Against Euschistus heros (Neotropical Brown Stink Bug)
Soybean leaves on agar in 24-well microtiter plates were sprayed with aqueous test solutions prepared from 10′000 ppm DMSO stock solutions. After drying the leaves were infested with N2 nymphs. The samples were assessed for mortality and growth inhibition in comparison to untreated samples 5 days after infestation.

[4] = tested on: Myzus persicae (Green peach aphid); experiment: Example B4: Activity against Myzus persicae (green peach aphid), feeding/contact activity, sunflower leaf discs; settings: foliar, 144 h, application rate of 200 ppm, 6 days after infestation
Procedure: Example B4: Activity against Myzus persicae (Green peach aphid) Feeding/Contact activity Sunflower leaf discs were placed onto agar in a 24-well microtiter plate and sprayed with aqueous test solutions prepared from 10′000 ppm DMSO stock solutions. After drying, the leaf discs were infested with an aphid population of mixed ages. The samples were assessed for mortality 6 days after infestation.

[5] = tested on: Myzus persicae (Green peach aphid); experiment: Example B5: Activity against Myzus persicae (green peach aphid), systemic activity, pea seedlings; settings: 144 h, test rate of 24 ppm, 6 days after placing seedlings into test solutions
Procedure: Example B5: Activity Against Myzus persicae (Green Peach Aphid) Systemic Activity
Roots of pea seedlings infested with an aphid population of mixed ages were placed directly into aqueous test solutions prepared from 10′000 DMSO stock solutions. The samples were assessed for mortality 6 days after placing seedlings into test solutions.

[6] = tested on: Plutella xylostella (Diamond Back Moth); experiment: Example B6: Activity against Plutella xylostella (diamond back moth), artificial diet, eggs; settings: 192 h, application rate of 200 ppm, 8 days after infestation, in comparison to untreated samples, read-out: effect in at least one of the two categories (mortality or growth inhibition)
Procedure: Example B6: Activity Against Plutella xylostella (Diamond Back Moth)
24-well microtiter plates with artificial diet were treated with aqueous test solutions prepared from 10′000 ppm DMSO stock solutions by pipetting. After drying, Plutella eggs were pipetted through a plastic stencil onto a gel blotting paper and the plate was closed with it. The samples were assessed for mortality and growth inhibition in comparison to untreated samples 8 days after infestation. The following compounds gave an effect of at least 80% in at least one of the two categories (mortality or growth inhibition) at an application rate of 200 ppm: P.1, P.2, P.3, P.4, P.5, P.6, P.7, P.8, P.9, P.10, P.11, P.12.

[7] = tested on: Spodoptera littoralis (Egyptian Cotton Leaf Worm); experiment: Example B7: Activity against Spodoptera littoralis (Egyptian cotton leaf worm), cotton leaf discs, L1 larvae; settings: foliar, 72 h, application rate of 200 ppm, 3 days after infestation, in comparison to untreated samples, read-out: control (at least one of mortality, anti-feedant effect, growth inhibition)
Procedure: Example B7: Activity Against Spodoptera littoralis (Egyptian Cotton Leaf Worm)
Cotton leaf discs were placed onto agar in 24-well microtiter plates and sprayed with aqueous test solutions prepared from 10′000 ppm DMSO stock solutions. After drying the leaf discs were infested with five L1 larvae. The samples were assessed for mortality, anti-feeding effect, and growth inhibition in comparison to untreated samples 3 days after infestation. Control of Spodoptera littoralis by a test sample is given when at least one of the categories mortality, anti-feedant effect, and growth inhibition is higher than the untreated sample.

CCS(=O)(=O)c1cc(C2(C#N)CC2)cnc1N1CCc2nc(C(F)(F)F)ccc2C1=O [P.3, 1-[5-ethylsulfonyl-6-[5-oxo-2-(trifluoromethyl)-7,8-dihydro-1,6-naphthyridin-6-yl]-3-pyridyl] cyclopropane-carbonitrile]
≥ 80%: percent control (mortality, anti-feedant effect or growth inhibition) at 200 ppm [1] | percent effect (mortality or growth inhibition) at 200 ppm [2] | percent effect (mortality or growth inhibition) at 200 ppm [3] | mortality at 200 ppm [4] | mortality at 24 ppm [5] | percent effect (mortality or growth inhibition) at 200 ppm [6] | control at 200 ppm [7]

CCS(=O)(=O)c1cc(C2(C#N)CC2)cnc1N1CCc2cc(OC(F)(F)F)ccc2C1=O [P.4, 1-[5-ethylsulfonyl-6-[1-oxo-6-(trifluoromethoxy)-3,4-dihydroisoquinolin-2-yl]-3-pyridyl] cyclopropane-carbonitrile]
≥ 80%: percent control (mortality, anti-feedant effect or growth inhibition) at 200 ppm [1] | percent effect (mortality or growth inhibition) at 200 ppm [2] | percent effect (mortality or growth inhibition) at 200 ppm [3] | mortality at 200 ppm [4] | percent effect (mortality or growth inhibition) at 200 ppm [6] | control at 200 ppm [7]

CCS(=O)(=O)c1cc(C2(C#N)CC2)cnc1N1CCc2c(ccc3c2OC(F)(F)O3)C1=O [P.6, 1-[6-(2,2-difluoro-6-oxo-8,9-dihydro-[1,3]dioxolo[4,5-f]isoquinolin-7-yl)-5-ethylsulfonyl-3-pyridyl]cyclopropane-carbonitrile]
≥ 80%: percent control (mortality, anti-feedant effect or growth inhibition) at 200 ppm [1] | percent effect (mortality or growth inhibition) at 200 ppm [2] | percent effect (mortality or growth inhibition) at 200 ppm [3] | mortality at 200 ppm [4] | percent effect (mortality or growth inhibition) at 200 ppm [6] | control at 200 ppm [7]

CCS(=O)(=O)c1cc(C2(C#N)CC2)cnc1N1CCc2nc(OC3CC3)ccc2C1=O [P.7, 1-[6-[2-(cyclopropoxy)-5-oxo-7,8-dihydro-1,6-naphthyridin-6-yl]-5-ethylsulfonyl-3-pyridyl]cyclopropane-carbonitrile]
≥ 80%: percent control (mortality, anti-feedant effect or growth inhibition) at 200 ppm [1] | percent effect (mortality or growth inhibition) at 200 ppm [2] | mortality at 200 ppm [4] | mortality at 24 ppm [5] | percent effect (mortality or growth inhibition) at 200 ppm [6] | control at 200 ppm [7]

CCS(=O)(=O)c1cc(C2(C#N)CC2)cnc1N1CCc2nc(Cl)ccc2C1=O [P.8, 1-[6-(2-chloro-5-oxo-7,8-dihydro-1,6-naphthyridin-6-yl)-5-ethylsulfonyl-3-pyridyl]cyclopropane-carbonitrile]
≥ 80%: mortality at 24 ppm [5] | percent effect (mortality or growth inhibition) at 200 ppm [6] | control at 200 ppm [7]

CCS(=O)(=O)c1cc(C2(C#N)CC2)cnc1N1CCc2nc(OCC(F)(F)Cl)ccc2C1=O [P.9, 1-[6-[2-(2-chloro-2,2-difluoro-ethoxy)-5-oxo-7,8-dihydro-1,6-naphthyridin-6-yl]-5-ethylsulfonyl-3-pyridyl]cyclopropane-carbonitrile]
≥ 80%: percent control (mortality, anti-feedant effect or growth inhibition) at 200 ppm [1] | percent effect (mortality or growth inhibition) at 200 ppm [2] | percent effect (mortality or growth inhibition) at 200 ppm [3] | mortality at 200 ppm [4] | percent effect (mortality or growth inhibition) at 200 ppm [6] | control at 200 ppm [7]
